Reference: the OligoGym collection
Several values for one entry are separate records, joined by “and”; a condition that tells them apart may be missing. Equal values may be shown once. After the bases stand the sugars from the 5' end (letter, count) and the backbone: PS all phosphorothioate, else s phosphorothioate and o phosphodiester by linkage. Methylation of C is not given here. e = 2'-O-(2-methoxyethyl) (MOE); k = constrained ethyl (cEt); d = 2'-deoxy (DNA)

Target: SOD1
Conditions: ASO

TCTCACTACAGGTACTT (sugars e2 k2 d9 k2 e2, PS)
target mRNA inhibition (HepG2, 5 µM): 46%

TCTCCAACATGCCTCTC (sugars e3 k2 d7 k2 e3, PS)
target mRNA inhibition (HepG2, 3 µM): 10%

TCTCTTCATCCTTTGGC (sugars e3 k2 d7 k2 e3, PS)
target mRNA inhibition (HepG2, 3 µM): 14%

TCTGACAAGTTTAATAC (sugars e2 k2 d8 k2 e3, PS)
target mRNA inhibition (HepG2, 5 µM): 33%

TCTGACAAGTTTAATAC (sugars e3 k2 d7 k2 e3, PS)
target mRNA inhibition (HepG2, 3 µM): 0%

TCTTCATCCTTTGGCCC (sugars e3 k2 d7 k2 e3, PS)
target mRNA inhibition (HepG2, 3 µM): 15%

TGAAACAGACATTTTAACTG (sugars e5 d10 e5, PS)
target mRNA inhibition (HepG2, 5 µM): 0%

TGAATTTGGATTCTTTTAAT (sugars e5 d10 e5, PS)
target mRNA inhibition (HepG2, 5 µM): 0%

TGACAAGTTTAATACCC (sugars e2 k2 d8 k2 e3, PS)
target mRNA inhibition (HepG2, 5 µM): 43%

TGAGATCACAGAATCTTCAA (sugars e5 d10 e5, PS)
target mRNA inhibition (HepG2, 5 µM): 30%

TGAGGACCTGCACTGGT (sugars e3 k2 d7 k2 e3, PS)
target mRNA inhibition (HepG2, 3 µM): 8%

TGCAGGCCTTCAGTCAGTCC (sugars e5 d10 e5, PS)
target mRNA inhibition (HepG2, 5 µM): 42% and 46%

TGCCATACAGGGTTTTT (sugars e2 k2 d9 k2 e2, PS)
target mRNA inhibition (HepG2, 5 µM): 22%

TGCCATACAGGGTTTTT (sugars e3 k2 d7 k2 e3, PS)
target mRNA inhibition (HepG2, 3 µM): 9%

TGCCCAAGTCATCTGCT (sugars e3 k2 d7 k2 e3, PS)
target mRNA inhibition (HepG2, 3 µM): 90%

TGGAATCCATGCAGGCC (sugars e3 k2 d7 k2 e3, PS)
target mRNA inhibition (HepG2, 3 µM): 12%

TGGCAAAATACAGGTCA (sugars e2 k2 d8 k2 e3, PS)
target mRNA inhibition (HepG2, 5 µM): 33%

TGGGCGATCCCAATTAC (sugars e3 k2 d7 k2 e3, PS)
target mRNA inhibition (HepG2, 3 µM): 20%

TGGTCCATTACTTTCCT (sugars e3 k2 d7 k2 e3, PS)
target mRNA inhibition (HepG2, 3 µM): 5%

TGTTTATCAGGATACAT (sugars e2 k2 d8 k2 e3, PS)
target mRNA inhibition (HepG2, 4 µM): 70%

TGTTTATTGGGCGATCC (sugars e2 k2 d8 k2 e3, PS)
target mRNA inhibition (HepG2, 4 µM): 50%

TTAAAGTGAGGACCTGC (sugars e3 k2 d7 k2 e3, PS)
target mRNA inhibition (HepG2, 3 µM): 14%

TTAAGTCTGGCAAAATA (sugars e2 k2 d9 k2 e2, PS)
target mRNA inhibition (HepG2, 5 µM): 42%

TTAATACCCATCTGTGA (sugars e2 k2 d9 k2 e2, PS)
target mRNA inhibition (HepG2, 5 µM): 26%

TTAATACCCATCTGTGA (sugars e3 k2 d7 k2 e3, PS)
target mRNA inhibition (HepG2, 3 µM): 2%

TTAATACCCATCTGTGATTT (sugars e5 d10 e5, PS)
target mRNA inhibition (HepG2, 5 µM): 11%

TTAATGTTTATCAGGA (sugars ekddddddddekekee, linkages s1 o1 s8 o3 s2)
target mRNA inhibition (A431, 0.12 µM): 0% | target mRNA inhibition (A431, 0.6 µM): 7% | target mRNA inhibition (A431, 3 µM): 21% | target mRNA inhibition (A431, 15 µM): 46% | target mRNA inhibition (HepG2, 0.222 µM): 52% | target mRNA inhibition (HepG2, 0.667 µM): 73% | target mRNA inhibition (HepG2, 2 µM): 84% | target mRNA inhibition (HepG2, 6 µM): 93%

TTAATGTTTATCAGGAT (sugars e2 k2 d8 k2 e3, linkages s1 o2 s9 o2 s2)
target mRNA inhibition (A431, 0.12 µM): 12% | target mRNA inhibition (A431, 0.6 µM): 36% | target mRNA inhibition (A431, 3 µM): 49% | target mRNA inhibition (A431, 15 µM): 72% | target mRNA inhibition (HepG2, 0.222 µM): 67% | target mRNA inhibition (HepG2, 0.667 µM): 90% | target mRNA inhibition (HepG2, 2 µM): 97% | target mRNA inhibition (HepG2, 6 µM): 94%

TTAATGTTTATCAGGAT (sugars e2 k2 d9 k2 e2, PS)
target mRNA inhibition (HepG2, 0.1875 µM): 43% | target mRNA inhibition (HepG2, 0.75 µM): 78% | target mRNA inhibition (HepG2, 3 µM): 93% | target mRNA inhibition (HepG2, 4 µM): 92% | target mRNA inhibition (HepG2, 12 µM): 98%

TTACACCACAAGCCAAA (sugars e2 k2 d8 k2 e3, PS)
target mRNA inhibition (HepG2, 4 µM): 60%

TTACACTTTTAAGATTACAG (sugars e5 d10 e5, PS)
target mRNA inhibition (HepG2, 5 µM): 0%

TTACAGTGTTTAATGTTT (sugars e5 d8 e5, linkages s1 o3 s9 o2 s2)
target mRNA inhibition (A431, 0.12 µM): 4% | target mRNA inhibition (A431, 0.6 µM): 0% | target mRNA inhibition (A431, 3 µM): 33% | target mRNA inhibition (A431, 15 µM): 17% | target mRNA inhibition (HepG2, 0.222 µM): 17% | target mRNA inhibition (HepG2, 0.667 µM): 42% | target mRNA inhibition (HepG2, 2 µM): 76% | target mRNA inhibition (HepG2, 6 µM): 54%

TTACTTTCCTTCTGCTC (sugars e3 k2 d7 k2 e3, PS)
target mRNA inhibition (HepG2, 3 µM): 22%

TTACTTTCCTTCTGCTCGAA (sugars e5 d10 e5, PS)
target mRNA inhibition (HepG2, 3 µM): 30%

TTAGTTTGAATTTGGATTCT (sugars e5 d10 e5, PS)
target mRNA inhibition (HepG2, 5 µM): 0%

TTATTGGGCGATCCCAA (sugars e2 k2 d9 k2 e2, PS)
target mRNA inhibition (HepG2, 4 µM): 41%

TTCATCCTTTGGCCCAC (sugars e3 k2 d7 k2 e3, PS)
target mRNA inhibition (HepG2, 3 µM): 26%

TTCATGGACCACCAGTGTGC (sugars e5 d10 e5, PS)
target mRNA inhibition (HepG2, 5 µM): 21%

TTCCAAGTGATCATAAATCA (sugars e5 d10 e5, PS)
target mRNA inhibition (HepG2, 5 µM): 18%

TTCCCCACACCTTCACTG (sugars e5 d8 e5, linkages s1 o3 s9 o2 s2)
target mRNA inhibition (A431, 0.12 µM): 2% | target mRNA inhibition (A431, 0.6 µM): 0% | target mRNA inhibition (A431, 3 µM): 0% | target mRNA inhibition (A431, 15 µM): 9% | target mRNA inhibition (HepG2, 0.222 µM): 7% | target mRNA inhibition (HepG2, 0.667 µM): 4% | target mRNA inhibition (HepG2, 2 µM): 42% | target mRNA inhibition (HepG2, 6 µM): 17%
